# System: hEPO protein produced in the serum
# Test: Delivery of human erythropoietin (hEPO) mRNA by intramuscular administration; hEPO protein in serum by ELISA
# Type: in vivo, Mice
# Settings: for in vivo protein production (hEPO protein) after delivery of hEPO mRNA: lipid nanoparticles comprising the compound, FIG. 1; for effectiveness in delivering hEPO mRNA compared with control cationic lipid: mice, intramuscular, lipid nanoparticles comprising the lipid, FIG. 1 and Table F
# Description: For the hEPO animal dosing studies, the lipid nanoparticles (LNPs) are diluted to […] in 10% trehalose. Mice are dosed intramuscularly (IM) with 0.1 μg in 30 μL volume into right gastrocnemius muscle on the leg of the mouse. Blood samples are collected 6 hours and 24 hours post injection to measure the amount of hEPO protein produced in the serum. The hEPO protein amounts are detected using an ELISA assay from commercially available kits. Lipid nanoparticle formulations described in Table D above encapsulating hEPO mRNA were prepared by Process A as described above for intramuscular (IM) administration in accordance with the above procedure.
structure (smiles),measurement,value
CCCCCCCC/C=C\CCCCCCC(O)CN(CCCCSSCCCN1CC(C)N(CCOC(=O)CCCN(CC(O)CCCCCCCCCC)CC(O)CCCCCCCCCC)CC1C)CC(O)CCCCCC/C=C\CCCCCCCC (stereo not shown) [Compound B1],in vivo protein production (hEPO protein) after delivery of hEPO mRNA,high levels of in vivo protein production
same,effectiveness in delivering hEPO mRNA compared with control cationic lipid,more effective in delivering hEPO mRNA than the control cationic lipid DLin-MC3-DMA
CCCCCCCC/C=C\CCCCCCC(O)CN(CCCCSSCCCCN1CC(C)N(CCOC(=O)CCCN(CC(O)CCCCCCCCCC)CC(O)CCCCCCCCCC)CC1C)CC(O)CCCCCC/C=C\CCCCCCCC (stereo not shown) [Compound C1],in vivo protein production (hEPO protein) after delivery of hEPO mRNA,high levels of in vivo protein production
same,effectiveness in delivering hEPO mRNA compared with control cationic lipid,more effective in delivering hEPO mRNA than the control cationic lipid DLin-MC3-DMA

# From patent publication US20260021055A1, “Asymmetric Piperazine-Based Cationic Lipids” (TRANSLATE BIO, INC., priority 2022, published 2026)
